The record followed here is patent US8282968B2, “Bioactive water fraction from Gomphostemma niveum” (The Director General, Defence Research and Development …, priority 2005, dated 2012).

For the experiment, the system named is P. falciparum. Briefly: In vitro evaluation of anti-malarial activity (schizont maturation inhibition). It is filed as cell-based. The settings on record: Plasmodium falciparum, 24 h. From the text:
All the tests are run in duplicates with in 96 well flat bottomed tissue culture plate and double dilutions are made for each of the test compound with individual control wells only with the RPMI 1640 and human serum supplement.

The structures appear in SMILES notation.

On to `CCN(CC)CCCC(C)Nc1ccnc2cc(Cl)ccc12` (stereo not shown) [Chloroquine], for which it took 46 nM to reach the 90% level (IC90).

A word on the IC90: it is the point of the concentration-response curve where the effect stands at 90%. High values mean weaker potency, low ones greater potency.
